According to PMC6278281, “Rosmarinic Acid Derivatives’ Inhibition of Glycogen Synthase Kinase-3β Is the Pharmacological Basis of Kangen-Karyu in Alzheimer’s Disease” (Molecules, 2018):
Where “and” joins values, the source holds several entries; their conditions need not be identical. Identical values can stand only once. Like-named read-outs stand apart in the source and are kept apart here.

Experiments:
[1] = tested on: Glycogen synthase kinase 3β; conditions: cited from earlier work; for Inhibition Mode / IC50: reference controls; for IC50: read-out: IC50, GSK-3β inhibition
human recombinant GSK-3β [2] = molecular target: T1, human recombinant GSK-3β (Homo sapiens, UniProt P49841); experiment: GSK-3β enzyme inhibition assay (Kinase-Glo luminescent kinase assay); format: biochemical; conditions: pure compounds, mean ± SEM of triplicate experiments
T1 construct: purchased ProSpec-Tany TechnoGene Ltd., Ness-Ziona, Israel
T1 sequence (P49841 whole entry): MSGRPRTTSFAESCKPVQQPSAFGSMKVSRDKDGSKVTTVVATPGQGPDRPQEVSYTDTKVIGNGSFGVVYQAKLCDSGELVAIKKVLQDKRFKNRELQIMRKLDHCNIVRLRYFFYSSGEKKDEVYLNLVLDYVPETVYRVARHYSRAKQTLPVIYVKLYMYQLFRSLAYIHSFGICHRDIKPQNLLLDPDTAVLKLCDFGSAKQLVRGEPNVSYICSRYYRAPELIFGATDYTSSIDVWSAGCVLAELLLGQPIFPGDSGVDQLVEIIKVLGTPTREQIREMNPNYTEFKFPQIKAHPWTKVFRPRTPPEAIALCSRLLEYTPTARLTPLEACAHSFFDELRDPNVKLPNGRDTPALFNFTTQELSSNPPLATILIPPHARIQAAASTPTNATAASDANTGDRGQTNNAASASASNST
Procedure: The enzymatic inhibition of GSK-3β in vitro was evaluated with human recombinant GSK-3β by using a Kinase-Glo reagent kit, according to Baki et al. [52] with a slight modification. The kinase reaction was performed in 384-well black plates. Test concentrations were prepared through serial dilution by using an assay buffer (pH 7.5) containing 50 mM HEPES, 1 mM EDTA, 1 mM EGTA, and 15 mM magnesium acetate. To initiate the reaction, 5 µL of sample, 5 µL of ATP (1 µM final concentration), 5 µL of 50 µM GSM, and 5 µL of 20 ng GSK-3β were mixed simultaneously in each well (the final DMSO concentration in the reaction mixture was less than 5%). Test samples were replaced by 5 µL of either buffer or luteolin to produce positive control (maximum activity) and negative control (total inhibition) samples. The reaction mixture was incubated at 37 °C for 30 min and was followed by the addition of the 20-µL Kinase-Glo reagent to stop the reaction. Glow-type luminescence was recorded after 10 min. The activity was proportional to the difference between total and consumed ATP. Inhibition activities were calculated on the basis of maximal activity, measured in the absence of the inhibitor, and the maximal inhibition was measured in the presence of the reference compound.

BACE1 = tested on: BACE1; design: method as in PMID 29679864; conditions: cited from earlier work
PC12 cells = tested on: PC12 cells; design: method as in PMID 19101570; conditions: 20 µg/mL; cited from earlier work
human recombinant GSK-3β [3] = molecular target: T1, human recombinant GSK-3β; experiment: GSK-3β enzyme kinetics (Lineweaver–Burk and secondary plots, varying ATP or GSM substrate); format: biochemical; conditions: for Ki: from secondary plots; for Inhibition Mode: Lineweaver–Burk plots
Procedure: The mode of GSK-3β enzyme inhibition by Sal B was characterized via kinetic study by using various concentrations of GSM substrate and ATP. Lineweaver–Burk plots showing reciprocal rates versus reciprocal GSM substrate/ATP concentrations (Figure 3) were deployed to explore the GSK-3β inhibition mechanism.
The GSK-3β enzyme kinetics was evaluated by using the assay method described in Section 4.4 with varying concentrations of ATP (2 µM, 1 µM, or 0.5 µM) or substrate (50 µM, 25 µM, or 12.5 µM). A Lineweaver–Burk plot was prepared by using double reciprocal plots of enzyme kinetic data. Ki values were calculated from the secondary plots.

SH-SY5Y-APPsw cells = tested on: SH-SY5Y-APPsw cells; design: method as in PMID 27258307; conditions: by modulating BACE1 activity; cited from earlier work
[4] = design: method as in PMID 29027831; conditions: nasal administration in rats, cited from earlier work
[5] = design: method as in PMID 15484228, PMID 16905282; conditions: oral administration; cited from earlier work
[6] = tested on: induced pluripotent stem cells (iPSCs); design: method as in PMID 29421539; conditions: via the AKT/GSK-3β signaling pathway; cited from earlier work
[7] = design: method as in PMID 21903108; conditions: induced by scopolamine or Aβ25–35; cited from earlier work
[8] = read-out: IC50 (Mean ± SEM), GSK-3β inhibition
[9] = IC50 (Mean ± SEM), GSK-3β inhibition

Row | Compound | Inhibition Mode [1] | IC50 [1] [µM] | IC50 (human recombinant GSK-3β [2]; [8]) | BACE1 inhibitory activity (BACE1) | further results
1 | O=C1Cc2c([nH]c3ccc([N+](=O)[O-])cc23)-c2ccccc2N1 [Alsterpaullone] | ATP-competitive [31] | 0.004 |  |  | 
2 | O=C(/C=C/c1ccc(O)c2c1[C@H](C(=O)O[C@H](Cc1ccc(O)c(O)c1)C(=O)O)[C@@H](c1ccc(O)c(O)c1)O2)O[C@H](Cc1ccc(O)c(O)c1)C(=O)O [Magnesium lithospermate B] |  |  | ~30 µM and 33.1 µM | potent activity | 
3 | O=C1Nc2ccccc2/C1=C1/Nc2ccccc2C1=O [Indirubin] | ATP-competitive [32] | 0.6 |  |  | 
4 | COc1ccc(CNC(=O)Nc2ncc([N+](=O)[O-])s2)cc1 [AR-A014418] | ATP-competitive [30] | 0.1 |  |  | Ki ([1]; reference control): 0.03 µM
5 | O=c1cc(-c2ccc(O)c(O)c2)oc2cc(O)cc(O)c12 [Luteolin, reference compound] |  |  |  |  | IC50 (human recombinant GSK-3β [2]; [9]): 2.18 ± 0.13 µM
6 | O=C(O)/C=C/c1ccc(O)c(O)c1 [Caffeic acid] |  |  | 425 ± 7.61 µM |  | phosphorylation of GSK-3β and tau protein (PC12 cells): decreases the phosphorylation of GSK-3β and tau protein
7 | O=C(C=Cc1ccc(O)c2c1C(C(=O)OC(Cc1ccc(O)c(O)c1)C(=O)O)C(c1ccc(O)c(O)c1)O2)OC(Cc1ccc(O)c(O)c1)C(=O)O (stereo not drawn) [Salvianolic acid B] |  |  |  |  | Ki (human recombinant GSK-3β [3]; ATP-competitive inhibition, constant GSM substrate (25 μM), varying ATP (0.5, 1, 2 μM)): 5.44 µM; Ki (human recombinant GSK-3β [3]; muscle glycogen synthase (GSM)-competitive inhibition, constant ATP (1 μM), varying GSM substrate (12.5, 25, 50 μM)): 6.32 µM; Inhibition Mode (human recombinant GSK-3β [3]): ATP-competitive; Inhibition Mode (human recombinant GSK-3β [3]; listed as Sal B): ATP-competitive and GSM substrate–competitive; IC50 (human recombinant GSK-3β [2]; [9]): 6.97 ± 0.96 µM; Aβ generation (SH-SY5Y-APPsw cells): inhibited Aβ generation; brain-targeting efficacy ([4]; compared to intravenous and oral administration): 5.54; bioavailability [4]: 43.98%; time to maximum plasma concentration [5]: 0.5 to 1 h; time traceable after administration [5]: up to 180 min; proliferation and differentiation into neurons of iPSCs [6]: potently improved; cognitive impairments [7]: reverses cognitive impairments
8 | O=C(/C=C/c1ccc(O)c(O)c1)O[C@H](Cc1ccc(O)c(O)c1)C(=O)O [Rosmarinic acid] |  |  | 135 ± 4.69 µM | potent activity | 
9 | O=C(/C=C/c1ccc(O)c(O)c1/C=C/c1ccc(O)c(O)c1)O[C@H](Cc1ccc(O)c(O)c1)C(=O)O [Salvianolic acid A] |  |  | ~30 µM and 30.2 µM | potent activity | 
10 | O=C(/C=C/c1ccc(O)c2oc(-c3ccc(O)c(O)c3)cc12)O[C@H](Cc1ccc(O)c(O)c1)C(=O)O [Salvianolic acid C] |  |  | ~30 µM and 31.8 µM | potent activity | 
